According to PubChem BioAssay AID1963981 (Molecular Pharmacology Branch, DTP, NCI, 2024):

System: 354836-022-R-J1-PDC multicell spheroid viability
Assay: Anticancer human tumor 354836-022-R-J1-PDC patient-derived head and neck squamous cell carcinoma cell line growth inhibition [PI3K]
Details: for IC50: curve of first compound; for viability, T/C: stronger effect = lower value; active = viability on the fitted dose curve at most 10% of control; inactive = the rest
Summary of the method: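 Spheroid viability read-out. Co-cultures contained the tumor line plus HUVEC and human MSCs. Each agent was paired with a PI3K inhibitor (inavolisib, alpelisib, duvelisib, copanlisib) across half-log dilutions starting at clinical Cmax, or at 10 microM when Cmax was unknown.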
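Also: spheroids exposed to agents for seven days before the viability read.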

Cn1cnc2c(F)c(Nc3ccc(Br)cc3Cl)c(C(=O)NOCCO)cc21 + Cc1nc(NC(=O)N2CCCC2C(N)=O)sc1-c1ccnc(C(C)(C)C(F)(F)F)c1
< 0.00949 µM: IC50 (second compound 10 µM)
inactive: viability, T/C (second compound 0.0316 µM, first compound 0.00949 µM) 85.6% | viability, T/C (second compound 0.0316 µM, first compound 0.03 µM) 82.2% | viability, T/C (second compound 0.0316 µM, first compound 0.0949 µM) 90.7% | viability, T/C (second compound 0.0316 µM, first compound 0.3 µM) 64.6% | viability, T/C (second compound 0.0316 µM, first compound 0.949 µM) 73.7% | viability, T/C (second compound 0.0316 µM, first compound 3 µM) 54.3% | viability, T/C (second compound 0.1 µM, first compound 0.00949 µM) 96.5% | viability, T/C (second compound 0.1 µM, first compound 0.03 µM) 83.1% | viability, T/C (second compound 0.1 µM, first compound 0.0949 µM) 82.9% | viability, T/C (second compound 0.1 µM, first compound 0.3 µM) 76.3% | viability, T/C (second compound 0.1 µM, first compound 0.949 µM) 70.4% | viability, T/C (second compound 0.1 µM, first compound 3 µM) 54.4% | viability, T/C (second compound 0.316 µM, first compound 0.00949 µM) 79.3% | viability, T/C (second compound 0.316 µM, first compound 0.03 µM) 86.2% | viability, T/C (second compound 0.316 µM, first compound 0.0949 µM) 80.5% | viability, T/C (second compound 0.316 µM, first compound 0.3 µM) 78.2% | viability, T/C (second compound 0.316 µM, first compound 0.949 µM) 75.6% | viability, T/C (second compound 0.316 µM, first compound 3 µM) 55.7% | viability, T/C (second compound 1 µM, first compound 0.00949 µM) 71.7% | viability, T/C (second compound 1 µM, first compound 0.03 µM) 75.2% | viability, T/C (second compound 1 µM, first compound 0.0949 µM) 78% | viability, T/C (second compound 1 µM, first compound 0.3 µM) 58.6% | viability, T/C (second compound 1 µM, first compound 0.949 µM) 63.3% | viability, T/C (second compound 1 µM, first compound 3 µM) 52% | viability, T/C (second compound 3.16 µM, first compound 0.00949 µM) 49.1% | viability, T/C (second compound 3.16 µM, first compound 0.03 µM) 58.1% | viability, T/C (second compound 3.16 µM, first compound 0.0949 µM) 55.8% | viability, T/C (second compound 3.16 µM, first compound 0.3 µM) 46% | viability, T/C (second compound 3.16 µM, first compound 0.949 µM) 54.8% | viability, T/C (second compound 3.16 µM, first compound 3 µM) 31.7% | viability, T/C (second compound 10 µM, first compound 0.00949 µM) 33% | viability, T/C (second compound 10 µM, first compound 0.03 µM) 29.7% | viability, T/C (second compound 10 µM, first compound 0.0949 µM) 30% | viability, T/C (second compound 10 µM, first compound 0.3 µM) 30.4% | viability, T/C (second compound 10 µM, first compound 0.949 µM) 25% | viability, T/C (second compound 10 µM, first compound 3 µM) 12.6%
> 3 µM: IC50 (second compound 0.0316 µM) | IC50 (second compound 0.1 µM) | IC50 (second compound 0.316 µM) | IC50 (second compound 1 µM)
1.1 µM: IC50 (second compound 3.16 µM)
